Reference: PMC8359193, “Summary of reference chemicals evaluated by the fish short‐term reproduction assay, OECD TG229, using Japanese Medaka, Oryzias latipes” (Journal of Applied Toxicology, 2021)
Structures can show the parent of a compound that is named as a salt.

Tests used:
[1] = system: Japanese medaka (Oryzias latipes); assay: Fish short-term reproduction assay (FSTRA, OECD TG229), 21-day flow-through exposure; details: for Fertility rate (%) / Mortality (%) Female / Mortality (%) Male / Number of fertilized eggs / Number of total eggs / SSC Female / SSC Male / VTG (ng/mg of liver) Female / VTG (ng/mg of liver) Male: 21 days; for GSI Female / GSI Male / HSI Female / HSI Male / Length Female / Length Male / Weight Female / Weight Male: at completion of exposure
Protocol: The experimental studies on the FSTRA for the 16 chemicals were conducted in two laboratories in Japan, the National Institute for Environmental Studies (NIES, Lab‐1) and the Institute of Environmental Ecology, IDEA Consultants Inc. (Lab‐2), in accordance with OECD TG229 (OECD, [2012a]) (Table 1).
The NIES‐R strain of Japanese medaka (O. latipes), one of the orange‐red varieties, was used in all the 16 chemical studies. For the studies, healthy and mature male and female medakas at 16 ± 2 weeks old were selected from a single‐stock population, which were bred within the test facilities. The test fish were maintained in conditions similar to the assay for at least 7 days, and spawning status was checked during the acclimation period. On the day the chemical exposure commenced, to ensure balanced distribution of test fish between the treatment groups for the reproductive status of the fish, the replicate vessels (fish tanks), with each containing three male and female medaka, were distributed to each treatment and control group, for example, by a randomized block design based on the number of fertilized eggs laid in the last 5–7 days during the acclimation, in each assay.
The water solubility of the test chemical was also taken into consideration when deciding the highest test concentration. To set the lower concentrations, a spacing factor ranging between two and five was used. All assays included a dilution water control (DWC).
Test solutions at the selected concentrations were prepared by diluting a stock solution, which was prepared by an adequate method depending on the physicochemical properties of the test chemicals, for example, by simply mixing the test chemical in dilution water by stirring and/or sonicating for an appropriate time or by using a solid–liquid saturator. In the two laboratories, flow‐through exposure systems, in which a series of test solutions at the target concentrations can be continuously prepared and delivered to test vessels at controlled flow rates (Haselman et al., [2016]; Watanabe et al., [2017]), were used for the exposure experiments.
In the FSTRA, three mature adult males and females in a test vessel were exposed together to the test chemicals in flow‐through condition for 3 weeks. In all the assays, each treatment group, including the DWC group, contained four replicate tanks. During the exposure period, the fish were fed a sufficient amount of live brine shrimp nauplii (newly hatched Artemia sp.) for daily spawning ad libitum. Fecal material in the tanks was appropriately removed by siphoning after feeding. Water temperature of test solutions was recorded for at least one vessel in each treatment and control group every day and for all vessels at least once a week. Furthermore, dissolved oxygen and pH of test solutions were measured for all test vessels at least once a week. Mortality and abnormal behavior and appearance in the fish exposed to test chemicals were daily observed, and any fish that died were removed from the tank as soon as possible. To assess the reproductive status, all eggs females spawned were collected every day. At the completion of the chemical exposure, surviving fish in each tank were sampled.
The eggs females released on the bottom of the tank were collected by siphoning, and the egg clutches still on female abdomen were carefully picked from the body of the females captured using a small net. All the eggs collected were microscopically observed and separately counted for fertilized and unfertilized.

Japanese medaka = details: MMT; ref Flynn et al. (2017); cited from earlier work
[2] = hepatic VTG, 21-day exposure, measured conc.

CC/C(=C(\c1ccccc1)c1ccc(OCCN(C)C)cc1)c1ccccc1 [TAM, tamoxifen citrate]
time from initiation of treatment to drastic reduction of daily fecundity ([1]; both, NIES-R, Japanese medaka (Oryzias latipes), in vivo): ≤ 3 days
LOEC for VTG induction in males [1, 2]: 10.0 µg/L
LOEC for decrease of VTG in females [1, 2]: 10.0 µg/L
LOEC on female VTG: times lower than that for RAL ([1]; in vivo): 70 times
Fertility rate (%) ([1]; measured conc. 10.0 μg/L): 94%
Mortality (%) Female ([1]; measured conc. 10.0 μg/L): 0%
Mortality (%) Male ([1]; measured conc. 10.0 μg/L): 0%
Number of fertilized eggs ([1]; measured conc. 10.0 μg/L): 12
Number of total eggs ([1]; measured conc. 10.0 μg/L): 13 ± 1.1 /female/day
SSC Female ([1]; measured conc. 10.0 μg/L): 0 ± 0
SSC Male ([1]; measured conc. 10.0 μg/L): 85 ± 11
VTG (ng/mg of liver) Female ([1]; measured conc. 10.0 μg/L): 666 ± 96 ng/mg of liver
VTG (ng/mg of liver) Male ([1]; measured conc. 10.0 μg/L): 181 ± 30.0 ng/mg of liver
GSI Female ([1]; measured conc. 10.0 μg/L): 7.3%
GSI Male ([1]; measured conc. 10.0 μg/L): 0.89%
HSI Female ([1]; measured conc. 10.0 μg/L): 3.6%
HSI Male ([1]; measured conc. 10.0 μg/L): 2.2%
Length Female ([1]; measured conc. 10.0 μg/L): 32.3 mm
Length Male ([1]; measured conc. 10.0 μg/L): 33.6 mm
Weight Female ([1]; measured conc. 10.0 μg/L): 369 mg
Weight Male ([1]; measured conc. 10.0 μg/L): 419 mg
Fertility rate (%) ([1]; measured conc. 83.3 μg/L): 76%
Mortality (%) Female ([1]; measured conc. 83.3 μg/L): 8.3%
Mortality (%) Male ([1]; measured conc. 83.3 μg/L): 0%
Number of fertilized eggs ([1]; measured conc. 83.3 μg/L): 1.6
Number of total eggs ([1]; measured conc. 83.3 μg/L): 2.2 ± 0.8 /female/day
SSC Female ([1]; measured conc. 83.3 μg/L): 0 ± 0
SSC Male ([1]; measured conc. 83.3 μg/L): 85 ± 7.0
VTG (ng/mg of liver) Female ([1]; measured conc. 83.3 μg/L): 335 ± 138 ng/mg of liver
VTG (ng/mg of liver) Male ([1]; measured conc. 83.3 μg/L): 319 ± 126 ng/mg of liver
GSI Female ([1]; measured conc. 83.3 μg/L): 11.5%
GSI Male ([1]; measured conc. 83.3 μg/L): 0.87%
HSI Female ([1]; measured conc. 83.3 μg/L): 4.2%
HSI Male ([1]; measured conc. 83.3 μg/L): 2.5%
Length Female ([1]; measured conc. 83.3 μg/L): 32.9 mm
Length Male ([1]; measured conc. 83.3 μg/L): 32.5 mm
Weight Female ([1]; measured conc. 83.3 μg/L): 418 mg
Weight Male ([1]; measured conc. 83.3 μg/L): 374 mg
effect on fecundity (number of total eggs), in words ([1]; within the test concentrations, 21-day exposure): statistically significant decrease
LOEC on female VTG (reduction) (Japanese medaka): 1.3 µg/L
